Measured values taken from patent US20230050070A1, “Antimicrobial Composition” (ATLANTIC TECHNOLOGIECAL UNIVERSITY, priority 2019, published 2023).

Test system: various species of microorganism
Assay: Well diffusion / Kirby-Bauer test, zones of inhibition
Type: cell-based
Conditions: SA and ASA tested alone, without A^3IS
Protocol: The purpose of the Kirby-Bauer disk diffusion susceptibility test is to determine the sensitivity or resistance of pathogenic aerobic and facultative anaerobic bacteria to various antimicrobial compounds.
Escherichia coli (NCIMB 8545), Staphylococcus aureus (NCIMB 951 and Pseudomonas aeruginosa (NCIMB 8626) are grown on nutrient agar or in nutrient broth for 24 hrs at 37° C.
Candida albicans (NCIMB 3179) and Saccharomyces cerevisiae are grown on sabaroud dextrose agar or in sabaroud dextrose broth for 24 hrs at 37° C.,
Bacterial growth is monitored by measuring the culture optical density (OD) in a spectrophotometer (Anthos 2010) at a wavelength of 620 nm.
Agar plates are inoculated by swabbing overnight culture onto the plate surface. Plates are allowed to stand at room temperature for 15 minutes before use. Wells 8.2 mm diameter are bored into the surface of the agar. A 180 μl sample is placed into each well. The samples diffuse into the agar around the well and are assayed for an ability to produce a zone of inhibition. Plates are incubated for 24, 48 or 72 hrs and zones of inhibition are measured using an Autodata automatic zone reader. The diameter of zones, including the diameter of the well (8.2 mm), is recorded.
Different microbial strains were each plated out according to the above-mentioned methods. […]

| SMILES | antimicrobial activity |
| --- | --- |
| O=C(O)c1ccccc1O [SA, Salicylic acid] | no discernible activity |
| CC(=O)Oc1ccccc1C(=O)O [ASA, Acetyl salicylic acid] | no discernible activity |
